One assay has as its system LK2 cells. Nature of the assay: Cell growth inhibitory activity, LK2 cells (Test Example 3). Type of assay: cell-based. As to conditions: Homo sapiens, LK-2, 72 h, cultured for 3 days, CellTiter-Glo. In a few lines:
(§1)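 LK2 and TE-8 […] cells in RPMI 1640 with 10% FBS exposed to 10-point 4-fold dilutions (10 mM to 38 nM, stock series) for 3 days. ATP luminescence (CellTiter-Glo 2.0) at day 0 and day 3 gave survival as (T3−C0)/(C3−C0)×100; GI50 from semilog plot.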

The target of a further assay is EP300 (Homo sapiens, UniProt Q09472). Put plainly: Histone acetyltransferase inhibitory activity against EP300 (Test Example 1). Type of assay: biochemical. The conditions noted are these: 50 ng/mL EP300, 2 μM Acetyl-CoA, 100 nM Histone H4(1-25)-GSGSK (Biotin), 28° C. for 1 hour. In a few lines: (§2)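 Enzyme (50 ng/mL EP300 or 125 ng/mL CREBBP) incubated 1 h at 28° C with 2 μM acetyl-CoA, 100 nM biotinylated histone H4(1-25) peptide and 10 to 0.0006 μM compound in pH 8.0 Tris buffer with 330 nM trichostatin A, 1% DMSO. Reaction stopped with Lys-CoA; acetylation read by TR-FRET (Eu-anti pan-Ac/Sta-ULight) after overnight room-temperature incubation.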
EP300, sequence (Q09472 whole entry): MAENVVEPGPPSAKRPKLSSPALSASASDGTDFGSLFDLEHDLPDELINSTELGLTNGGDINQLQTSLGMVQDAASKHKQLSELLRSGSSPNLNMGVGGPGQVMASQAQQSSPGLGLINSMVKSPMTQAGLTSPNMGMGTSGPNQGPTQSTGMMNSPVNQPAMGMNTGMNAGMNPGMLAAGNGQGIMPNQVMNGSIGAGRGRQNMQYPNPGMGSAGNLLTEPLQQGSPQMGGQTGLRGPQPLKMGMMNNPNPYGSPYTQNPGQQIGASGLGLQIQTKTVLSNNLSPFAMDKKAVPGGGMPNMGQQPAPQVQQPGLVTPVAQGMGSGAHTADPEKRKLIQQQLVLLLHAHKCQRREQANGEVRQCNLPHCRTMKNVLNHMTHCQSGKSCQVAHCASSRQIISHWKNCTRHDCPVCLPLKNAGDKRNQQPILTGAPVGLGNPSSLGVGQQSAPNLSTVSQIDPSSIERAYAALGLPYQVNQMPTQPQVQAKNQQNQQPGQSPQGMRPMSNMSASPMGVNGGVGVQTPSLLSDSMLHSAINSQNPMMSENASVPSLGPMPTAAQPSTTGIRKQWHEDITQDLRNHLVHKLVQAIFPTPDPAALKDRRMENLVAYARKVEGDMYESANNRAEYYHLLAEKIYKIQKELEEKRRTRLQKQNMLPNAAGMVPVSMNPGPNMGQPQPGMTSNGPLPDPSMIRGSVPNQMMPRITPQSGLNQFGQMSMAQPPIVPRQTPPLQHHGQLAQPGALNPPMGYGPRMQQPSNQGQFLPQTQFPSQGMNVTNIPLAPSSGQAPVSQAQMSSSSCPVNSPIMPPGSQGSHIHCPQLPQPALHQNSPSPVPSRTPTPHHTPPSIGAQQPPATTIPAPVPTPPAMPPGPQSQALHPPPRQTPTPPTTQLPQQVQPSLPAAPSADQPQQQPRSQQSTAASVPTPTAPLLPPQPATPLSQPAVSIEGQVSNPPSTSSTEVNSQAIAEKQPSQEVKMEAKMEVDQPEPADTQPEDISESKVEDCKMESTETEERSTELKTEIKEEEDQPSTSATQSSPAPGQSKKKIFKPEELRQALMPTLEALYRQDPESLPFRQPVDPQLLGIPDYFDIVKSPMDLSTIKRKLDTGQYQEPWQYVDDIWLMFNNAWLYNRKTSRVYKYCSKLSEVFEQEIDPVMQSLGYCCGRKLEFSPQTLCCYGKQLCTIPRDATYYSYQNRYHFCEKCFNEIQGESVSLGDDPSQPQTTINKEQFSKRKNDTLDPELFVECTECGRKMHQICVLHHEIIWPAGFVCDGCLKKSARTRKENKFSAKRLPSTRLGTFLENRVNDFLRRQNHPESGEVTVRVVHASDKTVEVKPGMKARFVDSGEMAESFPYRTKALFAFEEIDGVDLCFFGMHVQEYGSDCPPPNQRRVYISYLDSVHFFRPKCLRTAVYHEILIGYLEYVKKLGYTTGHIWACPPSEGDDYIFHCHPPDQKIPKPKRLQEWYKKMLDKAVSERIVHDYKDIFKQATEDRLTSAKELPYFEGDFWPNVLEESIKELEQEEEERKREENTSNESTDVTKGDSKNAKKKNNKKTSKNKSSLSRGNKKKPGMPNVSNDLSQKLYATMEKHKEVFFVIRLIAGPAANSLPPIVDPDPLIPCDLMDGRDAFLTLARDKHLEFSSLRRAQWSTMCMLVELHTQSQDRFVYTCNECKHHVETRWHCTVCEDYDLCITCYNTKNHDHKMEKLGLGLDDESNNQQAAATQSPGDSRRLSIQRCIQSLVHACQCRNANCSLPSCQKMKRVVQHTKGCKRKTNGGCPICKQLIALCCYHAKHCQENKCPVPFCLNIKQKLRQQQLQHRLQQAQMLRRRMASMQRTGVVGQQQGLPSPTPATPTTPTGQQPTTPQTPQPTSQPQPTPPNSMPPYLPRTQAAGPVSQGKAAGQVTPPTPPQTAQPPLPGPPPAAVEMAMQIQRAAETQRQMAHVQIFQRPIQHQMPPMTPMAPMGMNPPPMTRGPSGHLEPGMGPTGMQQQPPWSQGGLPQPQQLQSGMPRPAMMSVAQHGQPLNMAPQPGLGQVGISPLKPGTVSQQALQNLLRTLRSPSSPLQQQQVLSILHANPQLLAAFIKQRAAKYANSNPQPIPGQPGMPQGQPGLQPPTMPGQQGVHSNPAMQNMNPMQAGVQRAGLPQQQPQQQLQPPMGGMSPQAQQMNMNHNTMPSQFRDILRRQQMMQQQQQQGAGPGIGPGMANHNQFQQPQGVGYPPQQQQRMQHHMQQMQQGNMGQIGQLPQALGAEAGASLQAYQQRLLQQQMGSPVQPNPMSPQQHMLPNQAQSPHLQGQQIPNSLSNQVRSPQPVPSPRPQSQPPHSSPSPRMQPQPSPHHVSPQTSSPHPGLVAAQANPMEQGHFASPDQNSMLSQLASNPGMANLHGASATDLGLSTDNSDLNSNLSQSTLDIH

Another assay deals with TE-8 cells. Put plainly: Cell growth inhibitory activity, TE-8 cells (Test Example 3). Type of assay: cell-based. As to conditions: Homo sapiens, 72 h, cultured for 3 days, CellTiter-Glo. The procedure, abridged: as §1
(Cellular ATP, detected with luciferase, serves as a proxy for viable cell number.)

A further assay concerns H3K27Ac. Put plainly: Intracellular H3K27Ac inhibitory activity in LK2 cells (Test Example 2). The class given is cell-based. As to conditions: Homo sapiens, LK-2, cultured with compound for 3 hours, read-out: Test Example 2 H3K27Ac Inhibition (LK2) IC50. The procedure, abridged:
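Human squamous lung cancer LK2 cells (40000/well) cultured overnight at 37 °C, 5% CO2 before treatment. After paraformaldehyde fixation, peroxide quench and blocking, H3K27 acetylation detected with anti-acetyl-H3K27 rabbit mAb (4 °C overnight) and HRP secondary; chemiluminescent read-out.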

In another assay the target is CREBBP (Homo sapiens, UniProt Q92793). Put plainly: Histone acetyltransferase inhibitory activity against CREBBP (Test Example 1). Type of assay: biochemical. The conditions noted are these: 125 ng/mL CREBBP, 2 μM Acetyl-CoA, 100 nM Histone H4(1-25)-GSGSK (Biotin), 28° C. for 1 hour. In a few lines:
as §2

CREBBP, sequence (Q92793 whole entry): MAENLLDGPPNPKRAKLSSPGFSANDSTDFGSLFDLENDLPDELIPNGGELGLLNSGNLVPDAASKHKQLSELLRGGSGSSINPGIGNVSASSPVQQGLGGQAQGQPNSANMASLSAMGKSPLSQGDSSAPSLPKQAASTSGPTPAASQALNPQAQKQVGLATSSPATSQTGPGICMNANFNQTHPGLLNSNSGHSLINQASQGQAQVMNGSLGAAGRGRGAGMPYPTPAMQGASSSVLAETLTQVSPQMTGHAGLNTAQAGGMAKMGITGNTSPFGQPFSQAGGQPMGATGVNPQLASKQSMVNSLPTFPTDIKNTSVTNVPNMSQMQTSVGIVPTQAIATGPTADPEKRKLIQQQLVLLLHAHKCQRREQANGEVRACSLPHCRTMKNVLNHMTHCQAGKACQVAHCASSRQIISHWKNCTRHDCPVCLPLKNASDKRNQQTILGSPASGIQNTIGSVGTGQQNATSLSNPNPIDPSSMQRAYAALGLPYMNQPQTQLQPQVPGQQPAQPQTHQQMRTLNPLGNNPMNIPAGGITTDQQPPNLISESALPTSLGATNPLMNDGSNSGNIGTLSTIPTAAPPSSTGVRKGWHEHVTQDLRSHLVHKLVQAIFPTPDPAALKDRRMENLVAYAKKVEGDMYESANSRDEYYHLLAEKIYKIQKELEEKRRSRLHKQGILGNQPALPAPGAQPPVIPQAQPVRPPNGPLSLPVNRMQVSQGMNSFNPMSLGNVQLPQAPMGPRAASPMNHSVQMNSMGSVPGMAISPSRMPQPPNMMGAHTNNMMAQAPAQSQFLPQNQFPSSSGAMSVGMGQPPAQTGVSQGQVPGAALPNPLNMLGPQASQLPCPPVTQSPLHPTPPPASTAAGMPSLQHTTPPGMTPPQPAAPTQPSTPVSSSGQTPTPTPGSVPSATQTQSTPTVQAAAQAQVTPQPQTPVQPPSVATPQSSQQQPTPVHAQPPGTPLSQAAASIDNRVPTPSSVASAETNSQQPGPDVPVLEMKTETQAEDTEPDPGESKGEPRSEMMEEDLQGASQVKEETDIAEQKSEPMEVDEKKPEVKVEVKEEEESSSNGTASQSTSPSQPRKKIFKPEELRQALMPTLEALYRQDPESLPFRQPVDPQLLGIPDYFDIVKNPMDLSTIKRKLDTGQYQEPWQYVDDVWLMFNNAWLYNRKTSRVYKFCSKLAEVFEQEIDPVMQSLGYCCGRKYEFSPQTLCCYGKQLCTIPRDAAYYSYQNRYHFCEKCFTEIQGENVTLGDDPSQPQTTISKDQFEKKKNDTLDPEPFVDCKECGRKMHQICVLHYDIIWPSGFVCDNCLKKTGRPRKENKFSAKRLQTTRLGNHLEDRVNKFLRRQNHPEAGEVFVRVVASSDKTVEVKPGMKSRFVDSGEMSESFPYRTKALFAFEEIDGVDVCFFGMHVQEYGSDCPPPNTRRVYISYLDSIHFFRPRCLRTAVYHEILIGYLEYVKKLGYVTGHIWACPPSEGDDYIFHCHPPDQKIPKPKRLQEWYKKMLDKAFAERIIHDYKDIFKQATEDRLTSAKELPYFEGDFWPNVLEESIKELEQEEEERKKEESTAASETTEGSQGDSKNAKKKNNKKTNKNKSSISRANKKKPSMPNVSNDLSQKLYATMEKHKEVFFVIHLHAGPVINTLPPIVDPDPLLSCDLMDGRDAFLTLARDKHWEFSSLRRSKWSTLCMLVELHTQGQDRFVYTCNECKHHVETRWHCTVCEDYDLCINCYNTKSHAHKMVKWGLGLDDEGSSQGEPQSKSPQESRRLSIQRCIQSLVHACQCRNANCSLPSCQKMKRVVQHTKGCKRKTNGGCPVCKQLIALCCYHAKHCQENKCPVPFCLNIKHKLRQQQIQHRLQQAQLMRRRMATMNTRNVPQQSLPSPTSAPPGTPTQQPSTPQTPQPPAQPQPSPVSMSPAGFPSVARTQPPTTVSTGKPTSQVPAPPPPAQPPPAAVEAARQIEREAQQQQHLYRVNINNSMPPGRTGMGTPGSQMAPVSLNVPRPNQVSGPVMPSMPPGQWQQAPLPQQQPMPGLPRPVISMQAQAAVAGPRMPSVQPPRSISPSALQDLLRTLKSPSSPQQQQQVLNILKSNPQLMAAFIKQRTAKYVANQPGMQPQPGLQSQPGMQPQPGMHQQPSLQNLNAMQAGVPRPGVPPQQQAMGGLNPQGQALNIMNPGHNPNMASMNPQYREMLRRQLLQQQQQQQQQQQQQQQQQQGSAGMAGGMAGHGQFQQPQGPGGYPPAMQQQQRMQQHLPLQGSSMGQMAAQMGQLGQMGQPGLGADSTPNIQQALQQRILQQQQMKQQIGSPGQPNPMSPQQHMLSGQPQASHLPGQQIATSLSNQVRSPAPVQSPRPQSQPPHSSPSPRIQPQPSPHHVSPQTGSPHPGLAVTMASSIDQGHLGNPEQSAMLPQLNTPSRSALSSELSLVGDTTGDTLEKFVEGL

A word on the GI50: it is the concentration that inhibits growth by half. A word on the IC50: it is the point on the concentration scale where inhibition reaches its midpoint. For the molecule `CC(=O)c1ccc(C2(C(=O)N3C[C@H](F)C[C@@H]3C(=O)Nc3ccc4[nH]ncc4n3)CCCCC2)cc1` [Example 83, (4R)-1-{[1-(4-Acetylphenyl)cyclohexyl]carbonyl}-4-fluoro-N-1H-pyrazolo[4,3-b]pyridin-5-yl-D-prolinamide], the figures for the GI50 in the assay with LK2 cells and in the assay with TE-8 cells were 203 nM and 151 nM, respectively. Further, the concentration for half-maximal inhibition (IC50) turned out to be 33 nM against EP300, 19 nM in the assay on H3K27Ac and 61 nM against CREBBP.

On to `O=C(Nc1ccc2[nH]ncc2n1)[C@H]1C[C@@H](F)CN1C(=O)C1(c2ccc(OCF)c(F)c2)CCC(F)(F)CC1` [Example 85, (4R)-1-({4,4-Difluoro-1-[3-fluoro-4-(fluoromethoxy)phenyl]cyclohexyl}carbonyl)-4-fluoro-N-1H-pyrazolo[4,3-b]pyridin-5-yl-D-prolinamide], for which the results for the concentration for 50% growth inhibition (GI50) with LK2 cells and with TE-8 cells were 206 nM and 412 nM, respectively. Further, the half-maximal inhibitory concentration (IC50) against EP300 is 31 nM; with H3K27Ac it was 29 nM; against CREBBP it was 53 nM.

As for `O=C(Nc1ccc2[nH]ncc2n1)[C@H]1C[C@@H](F)CN1C(=O)C1(c2ccc(OCF)c(F)c2)CC(F)(F)C1` [Example 86], the concentration for 50% growth inhibition (GI50) in the assay with LK2 cells worked out at 86.8 nM; in the assay on TE-8 cells, 101 nM. For the same molecule, the figures for the concentration for half-maximal inhibition (IC50) on EP300, with H3K27Ac and against CREBBP were 23 nM, 14 nM and 40 nM, respectively.

As for `O=C(Nc1ccc2[nH]ncc2n1)[C@H]1C[C@@H](F)CN1C(=O)C1(c2ccc(OCC(F)(F)F)c(F)c2)CC(F)(F)C1` [Example 87], the figures for the GI50 with LK2 cells and with TE-8 cells were 237 nM and 300 nM, respectively. Moreover, the IC50 at EP300 is 38 nM; in the assay on H3K27Ac, 73 nM; on CREBBP it was 82 nM.

On to `CCOc1ccc(C2(C(=O)N3C[C@H](F)C[C@@H]3C(=O)Nc3ccc4[nH]ncc4n3)CC(F)(F)C2)cc1F` [Example 88], for which the values for the concentration for 50% growth inhibition (GI50) in the assay with LK2 cells and with TE-8 cells were 201 nM and 351 nM, respectively. The values for the IC50 on EP300, in the assay on H3K27Ac and against CREBBP were 37 nM, 53 nM and 80 nM, respectively.

For the molecule `O=C(Nc1ccc2[nH]ncc2n1)[C@H]1C[C@@H](F)CN1C(=O)C1(c2ccc(OC(F)F)c(F)c2)CCC(F)(F)CC1` [Example 89], the GI50 is 279 nM in the assay with LK2 cells and 491 nM in the assay with TE-8 cells. Further, the concentration for half-maximal inhibition (IC50) on EP300 was 38 nM; in the assay with H3K27Ac, 62 nM; against CREBBP it was 61 nM.

For `O=C(Nc1ccc2[nH]ncc2n1)[C@H]1C[C@@H](F)CN1C(=O)C1(c2ccc(OC(F)F)cc2)CC(F)(F)C1` [Example 90], the GI50 with LK2 cells is 73.4 nM; in the assay with TE-8 cells, 106 nM. Moreover, the figures for the IC50 against EP300, in the assay on H3K27Ac and against CREBBP were 4 nM, 9 nM and 7 nM, respectively.

As to `[2H]C([2H])([2H])Oc1ccc(C2(C(=O)N3C[C@H](F)C[C@@H]3C(=O)Nc3ccc4[nH]ncc4n3)CCC(F)(F)CC2)cc1F` [Example 91, (4R)-1-[(4,4-Difluoro-1-{3-fluoro-4-[(^2H3)methyloxy]phenyl}cyclohexyl)carbonyl]-4-fluoro-N-1H-pyrazolo[4,3-b]pyridin-5-yl-D-prolinamide], the concentration for 50% growth inhibition (GI50) came to 217 nM in the assay on LK2 cells and 364 nM in the assay with TE-8 cells. The half-inhibitory concentration (IC50) against EP300 amounted to 31 nM; in the assay on H3K27Ac, 89 nM; against CREBBP it was 75 nM.

With `[2H]C([2H])([2H])Oc1ccc(C2(C(=O)N3C[C@H](F)C[C@@H]3C(=O)Nc3ccc4[nH]ncc4n3)CCC(F)(F)CC2)cc1` [Example 92, (4R)-1-[(4,4-Difluoro-1-{4-[(^2H3)methyloxy]phenyl}cyclohexyl)carbonyl]-4-fluoro-N-1H-pyrazolo[4,3-b]pyridin-5-yl-D-prolinamide], the GI50 in the assay on LK2 cells was 195 nM; in the assay with TE-8 cells, 308 nM. Besides, the IC50 came to 22 nM against EP300, 51 nM with H3K27Ac and 53 nM at CREBBP.

In the case of `COc1cccc(C2(C(=O)N3C[C@H](F)C[C@@H]3C(=O)Nc3ccc4[nH]ncc4n3)CCC(F)(F)CC2)c1` [Example 93, (4R)-1-{[4,4-Difluoro-1-(3-methoxyphenyl)cyclohexyl]carbonyl}-4-fluoro-N-1H-pyrazolo[4,3-b]pyridin-5-yl-D-prolinamide], the figures for the GI50 in the assay with LK2 cells and with TE-8 cells were 746 nM and 1050 nM, respectively. For the same molecule, the IC50 on EP300 was 56 nM; in the assay on H3K27Ac, 311 nM; against CREBBP, 76 nM.

In the case of `O=C(Nc1ccc2[nH]ncc2n1)[C@H]1C[C@@H](F)CN1C(=O)C1(c2ccc(-c3ccccc3)c(F)c2)CCC(F)(F)CC1` [Example 94], the GI50 was determined as 625 nM with LK2 cells and 586 nM in the assay on TE-8 cells. Also, the concentration for half-maximal inhibition (IC50) amounted to 109 nM against EP300, 123 nM in the assay with H3K27Ac and 305 nM on CREBBP.

For the molecule `O=C(Nc1ccc2[nH]ncc2n1)[C@H]1[C@H](O)[C@@H](F)CN1C(=O)C1(c2ccc(OC(F)F)cc2)CCC(F)(F)CC1` [Example 95], the figures for the 50% growth inhibitory concentration (GI50) in the assay with LK2 cells and in the assay on TE-8 cells were 179 nM and 246 nM, respectively. The values for the IC50 on EP300, in the assay with H3K27Ac and on CREBBP were 36 nM, 20 nM and 51 nM, respectively.

`COCO[C@@H]1CN(C(=O)C2(c3ccc(OC)cc3)CCC(F)(F)CC2)[C@H]1C(=O)Nc1ccc2[nH]ncc2n1` [Example 96, (2R,3R)-1-{[4,4-Difluoro-1-(4-methoxyphenyl)cyclohexyl]carbonyl}-3-(methoxymethoxy)-N-(1H-pyrazolo[4,3-b]pyridin-5-yl)azetidine-2-carboxamide]: the GI50 in the assay with LK2 cells and in the assay on TE-8 cells was more than 10000 nM in each case. Further, the concentration for half-maximal inhibition (IC50) against EP300 was 2470 nM; with H3K27Ac it was more than 1000 nM; against CREBBP it was 2170 nM.

With `COc1ccc(C2(C(=O)N3C[C@H](F)C[C@@H]3C(=O)Nc3ccc4[nH]c(C)cc4n3)CCC(F)(F)CC2)cc1` [Example 97, (4R)-1-{[4,4-Difluoro-1-(4-methoxyphenyl)cyclohexyl]carbonyl}-4-fluoro-N-(2-methyl-1H-pyrrolo[3,2-b]pyridin-5-yl)-D-prolinamide], the results for the GI50 in the assay on LK2 cells and with TE-8 cells were 854 nM and 1180 nM, respectively. The IC50 at EP300 is 70 nM; in the assay with H3K27Ac, 218 nM; against CREBBP, 123 nM.

`CC(C)(O)c1ccc(C2(C(=O)N3C[C@H](F)C[C@@H]3C(=O)Nc3ccc4[nH]ncc4n3)CCC(F)(F)CC2)cc1` [Example 98, (4R)-1-({4,4-Difluoro-1-[4-(2-hydroxypropan-2-yl)phenyl]cyclohexyl}carbonyl)-4-fluoro-N-1H-pyrazolo[4,3-b]pyridin-5-yl-D-prolinamide]: the results for the 50% growth inhibitory concentration (GI50) in the assay on LK2 cells and in the assay on TE-8 cells were 267 nM and 331 nM, respectively. The concentration for half-maximal inhibition (IC50) was found to be 76 nM against EP300, 62 nM in the assay on H3K27Ac and 202 nM against CREBBP.

Consider `CS(=O)(=O)c1ccc(C2(C(=O)N3C[C@H](F)C[C@@H]3C(=O)Nc3ccc4[nH]ncc4c3C#N)CCC(F)(F)CC2)cc1` [Example 99, (4R)—N-(4-Cyano-1H-indazol-5-yl)-1-({4,4-difluoro-1-[4-(methylsulfonyl)phenyl]cyclohexyl}carbonyl)-4-fluoro-D-prolinamide], for which the GI50 with LK2 cells turned out to be 300 nM; with TE-8 cells, 399 nM. The IC50 is 76 nM at EP300, 62 nM with H3K27Ac and 205 nM on CREBBP.

Regarding `COc1ccc(C2(C(=O)N3C[C@H](F)C[C@@H]3C(=O)Nc3ccc4[nH]ncc4c3F)CCC(F)(F)CC2)cc1` [Example 100], the GI50 in the assay with LK2 cells was 660 nM; in the assay with TE-8 cells it was 1370 nM. Further, the IC50 amounted to 67 nM against EP300, 243 nM in the assay on H3K27Ac and 95 nM at CREBBP.

As for `CC(=O)Nc1ccc(C2(C(=O)N3C[C@H](F)C[C@@H]3C(=O)Nc3ccc4[nH]ncc4n3)CCC(F)(F)CC2)cc1` [Example 101, (4R)-1-({1-[4-(acetylamino)phenyl]-4,4-difluorocyclohexyl}carbonyl)-4-fluoro-N-1H-pyrazolo[4,3-b]pyridin-5-yl-D-prolinamide], the GI50 was 707 nM with LK2 cells and 1050 nM in the assay with TE-8 cells. Besides, the IC50 was 120 nM on EP300, 240 nM with H3K27Ac and 235 nM against CREBBP.

For `CS(=O)(=O)Nc1ccc(C2(C(=O)N3C[C@H](F)C[C@@H]3C(=O)Nc3ccc4[nH]ncc4n3)CCC(F)(F)CC2)cc1` [Example 102, (4R)-1-[(4,4-Difluoro-1-{4-[(methylsulfonyl)amino]phenyl}cyclohexyl)carbonyl]-4-fluoro-N-1H-pyrazolo[4,3-b]pyridin-5-yl-D-prolinamide], the 50% growth inhibitory concentration (GI50) amounted to 323 nM with LK2 cells and 439 nM with TE-8 cells. In addition, the figures for the IC50 at EP300, in the assay on H3K27Ac and on CREBBP were 40 nM, 126 nM and 84 nM, respectively.

The record behind these values is patent US11274100B2, “EP300/CREBBP inhibitor” (Daiichi Sankyo Company, Limited, priority 2017, dated 2022).
